Source: patent US4207339A, “Anti-ulcer pharmaceutical composition containing inositol hexasulfate or an alkaline metal salt thereof as active ingredient” (Mitsui Toatsu Chemicals, Incorporated, priority 1978, dated 1980)
Counter-ions that a name gives are not always drawn. Like-named read-outs stand apart in the source and are kept apart here.

How the values were obtained:
[1] = tested on: Rat; test: Acute toxicity in rats; assay type: in vivo, Male and female rats of the Wistar strain; conditions: 7 days observation
From the text: They were preliminarily raised for a week.

[2] = tested on: Gastric Juice Acidity; test: Effect on gastric juice acidity (pyloric ligation, titration with 0.05 N sodium hydroxide); assay type: in vivo, Male rats of the Donryu strain; conditions: 250 mg/kg, p.o.; 4 hours; control 92.5 ± 3.7; significant at 5% level
Procedure: (§1) Male rats of the Donryu strain, 11 weeks of age, were used in groups of ten. After 24 hours of fasting, the pyloric part of the stomach was ligated. Four hours later, the gastric juice was collected and its volume was measured. Then, its acidity was determined by titrating an aliquot of the gastric juice with 0.05 N sodium hydroxide. Further, the activity of pepsin was determined by Anson's method. A definite amount (250 mg/kg) of a compound to be tested was orally administered immediately after the pyloric ligation.

[3] = tested on: Mouse; conditions: 7 days observation
Procedure: Male and female mice of the dd Y strain, 4 weeks of age, as well as male and female rats of the rats of the Wistar strain, 7 weeks of age, were used in groups of ten. They were preliminarily raised for a week. Then, a compound to be tested (sodium salt) was dissolved in physiological saline solution and administered orally or subcutaneously. In the case of oral administration, the highest possible doses of 0.2 ml/10 g for mice and 2 ml/100 g for rats were used which both corresponded to 5,000 mg/kg. In the case of subcutaneous administration, the doses were reduced to 1/2. […] The animals that died during this period of observation were subjected to post-mortem examination.

[4] = tested on: Acetic Acid Ulcer; test: Anti-ulcer effect: acetic acid ulcer; assay type: in vivo, Male rats of the Wistar strain; conditions: p.o., twice a day for 7 days
Procedure: (§2) The anti-ulcer effect of some compounds of this invention was evaluated with regard to various types of experimental gastric and duodenal ulcers. The method of evaluation for each type of ulcer is outlined below.
Male rats of the Wistar strain, 6 weeks of age, were used in groups of ten. Under ether anesthesia, each animal was laparotomized, a round frame (with an inside diameter of 5 mm) made of stainless steel was applied to the anterior wall of the stomach, and 100% acetic acid was poured into the frame. After 30 seconds, the acetic acid was removed and the abdomen was closed. Starting on the 7th day after the operation, a certain amount of a compound to be tested was orally administered twice a day to each animal of a group for a period of 7 days. Thereafter, the degree of healing of the ulcer was rated by visual inspection and regarded as an ulcer index (U.I.). The results are also expressed in terms of the percentage of healing based on the U.I. obtained in the control group receiving no compounds to be tested.

[5] = tested on: Shay's Ulcer; test: Anti-ulcer effect: Shay's ulcer (pyloric ligation); assay type: in vivo, Male rats of the Wistar strain; conditions: p.o., 12 hours, vs control U.I.
Procedure: as §2
Male rats of the Wistar strain, 7 or 8 weeks of age, were used in groups of ten. After 48 hours of fasting, the pyloric part of the stomach was ligated under ether anesthesia. Immediately after the operation, a certain amount of a compound to be tested was orally administered to each animal of a group. After 12 hours, the degree of ulceration occurring in the anterior part of the stomach was rated and regarded as an ulcer index (U.I.). Control rats were treated in the same manner as described above, except that they received no compounds to be tested. The results given in Table 1 are expressed in terms of the percentage of inhibition based on the U.I. obtained in the control group.

[6] = tested on: Aspirin Ulcer; test: Anti-ulcer effect: aspirin ulcer; assay type: in vivo, Male rats of the Donryu strain; conditions: p.o., aspirin 250 mg/kg, 6 hours
Procedure: as §2
Male rats of the Donryu strain, 10 to 11 weeks of age, were used in groups of ten. After 24 hours of fasting, a certain amount of a compound to be tested was orally administered to each animal of a group. Ten minutes later, aspirin was orally administered in a dose of 250 mg/kg. After 6 hours, the size of the ulcer formed in the glandular part of the stomach was rated by visual inspection and regarded as an ulcer index (U.I.). The results are also expressed in terms of the percentage of inhibition based on the U.I. obtained in the control group receiving no compounds to be tested.

[7] = tested on: Cysteamine Duodenal Ulcer; test: Anti-ulcer effect: cysteamine duodenal ulcer; assay type: in vivo, Male rats of the Donryu strain; conditions: p.o., cysteamine hydrochloride 400 mg/kg, 18 hours
Procedure: as §2
(iv) Cysteamine Duodenal Ulcer
Male rats of the Donryu strain, 10 or 11 weeks of age, were used in groups of ten. After 24 hours of fasting, a certain amount of a compound to be tested was orally administered to each animal of a group. Thirty minutes later, cysteamine hydrochloride was orally administered in a dose of 400 mg/kg. After 18 hours, the product of the maximum and minimum diameters of the ulcer formed in the duodenum was determined and regarded as an ulcer index (U.I.). The results are also expressed in terms of the percentage of inhibition based on the U.I. obtained in the control group receiving no compounds to be tested.

[8] = tested on: Gastric Juice Secretion; test: Effect on gastric juice secretion (pyloric ligation); assay type: in vivo, Male rats of the Donryu strain; conditions: 250 mg/kg, p.o.; 4 hours; control 4.9 ± 0.4; significant at 5% level
Procedure: as §1

[9] = tested on: Stress Ulcer; test: Anti-ulcer effect: stress ulcer; assay type: in vivo, Male rats of the Wistar strain; conditions: p.o., stress for 16 hours, vs control U.I.
Procedure: as §2
Male rats of the Wistar strain, 8 weeks of age, were used in groups of ten. Each animal was immobilized in a stressing cage as developed by Takagi et al., immersed in water at 23° C. to the level of the xiphoid process, and thereby subjected to stress for 16 hours. Thereafter, the stomach was excised. The length of the ulcer formed in the glandular part of the stomach was measured and regarded as an ulcer index (U.I.). A certain amount of a compound to be tested was orally administered just before subjecting the animal to stress. The results are also expressed in terms of the percentage of inhibition based on the U.I. obtained in the control group receiving no compounds to be tested.

[10] = tested on: pepsin; test: Effect on pepsin activity (pyloric ligation, Anson's method); assay type: in vivo, Male rats of the Donryu strain; conditions: 250 mg/kg, p.o.; 4 hours; control 7.4 ± 0.5; significant at 1% level
Procedure: as §1

Structure (SMILES) | Acidity of Gastric Juice [2] [mEq/l] | percentage of healing (Acetic Acid Ulcer) ([4]; 100 mg/kg) | percentage of healing (Acetic Acid Ulcer) ([4]; 250 mg/kg) | percentage of inhibition (Shay's Ulcer) ([5]; 100 mg/kg) | percentage of inhibition (Shay's Ulcer) ([5]; 250 mg/kg) | percentage of inhibition (Aspirin Ulcer) ([6]; 100 mg/kg) | percentage of inhibition (Aspirin Ulcer) ([6]; 250 mg/kg) | Amount of Gastric Juice Secreted [8] [mL] | percentage of inhibition (Stress Ulcer) ([9]; 250 mg/kg) | Activity of Pepsin [10] [mg/mL] | also measured
O=S(=O)([O-])OC1C(OS(=O)(=O)[O-])C(OS(=O)(=O)[O-])C(OS(=O)(=O)[O-])C(OS(=O)(=O)[O-])C1OS(=O)(=O)[O-].[Na+].[Na+].[Na+].[Na+].[Na+].[Na+] (stereo not shown) [Sodium Salt, inositol hexasulfate sodium salt] | 58.4 ± 11.7 | 29 percentage of healing | 16 percentage of healing | 92 percentage of inhibition | 77 percentage of inhibition | 44 percentage of inhibition | 48 percentage of inhibition | 3.3 ± 0.4 | 27 percentage of inhibition | 5.0 ± 0.4 | LD50 ([1]; Oral): > 5,000 mg/kg; LD50 ([1]; Subcutaneous): > 2,500 mg/kg; LD50 ([3]; Oral): > 5,000 mg/kg; LD50 ([3]; Subcutaneous): > 2,500 mg/kg; percentage of healing (Acetic Acid Ulcer) ([4]; 500 mg/kg): 38 percentage of healing; percentage of inhibition (Shay's Ulcer) ([5]; 50 mg/kg): 74 percentage of inhibition; percentage of inhibition (Aspirin Ulcer) ([6]; 50 mg/kg): 11 percentage of inhibition; percentage of inhibition (Cysteamine Duodenal Ulcer) ([7]; 100 mg/kg): 37 percentage of inhibition; percentage of inhibition (Cysteamine Duodenal Ulcer) ([7]; 250 mg/kg): 46 percentage of inhibition; percentage of inhibition (Cysteamine Duodenal Ulcer) ([7]; 500 mg/kg): 77 percentage of inhibition; percentage of inhibition (Stress Ulcer) ([9]; 500 mg/kg): 50 percentage of inhibition
O=S(=O)(O)OC1C(OS(=O)(=O)O)C(OS(=O)(=O)O)C(OS(=O)(=O)O)C(OS(=O)(=O)O)C1OS(=O)(=O)O (stereo not shown) [Potassium Salt, inositol hexasulfate potassium salt] | 60.2 ± 11.8 | 28 percentage of healing | 22 percentage of healing | 85 percentage of inhibition | 80 percentage of inhibition | 46 percentage of inhibition | 40 percentage of inhibition | 3.5 ± 0.4 | 25 percentage of inhibition | 5.2 ± 0.4 | 
